In patent US10143201B2, “Fungicidal compositions” (Syngenta Crop Protection LLC, priority 2007, dated 2018):
Several values for one entry are separate records, joined by “and”; a condition that tells them apart may be missing. Equal values may be shown once. Each block holds one compound with its values, some of them ahead of it.

How the values were obtained:
[1] = test system: Phakopsora pachyrhizi; experiment: Action against Asian soybean rust, leaf disc test; assay type: in vivo; details: 14 days after inoculation
Description: Example B-1: Action Against Asian Soybean Rust (Phakopsora pachyrhizi)—Leaf Disc Test
Whole soybean plants (variety brand Williams82) are treated with the recited active ingredients 4 weeks after planting. 1 day after spraying leaf disks are cut from the first trifoliate leaf. Five repetitions at each rate are conducted. The leaf disks are inoculated with Phakopsora pachyrhizi (Asian soybean rust) one day after treatment. Evaluation of the leaf disks is conducted fourteen days after inoculation and the mean percent infestation of the five repetitions is calculated. Standard EC100 formulations are used. The rates of the active ingredients used are given in Table B1 as g active ingredient (a.i.)/ha.

[2] = test system: Botrytis cinerea; experiment: Fungicidal action against Botrytis cinerea (gray mould), microtiter growth inhibition; assay type: cell-based; details: alone
Description: Example B2: Fungicidal Action Against Botrytis cinerea (Gray Mould)
(§1) Conidia of the fungus from cryogenic storage are directly mixed into nutrient broth (PDB potato dextrose broth). After placing a (DMSO) solution of the test compounds into a microtiter plate (96-well format) the nutrient broth containing the fungal spores is added. The test plates are incubated at 24° C. and the inhibition of growth is evaluated after 4 days. The expected fungicidal action is calculated according to the Colby method.

[3] = test system: Septoria tritici; experiment: Fungicidal action against Septoria tritici (leaf blotch), microtiter growth inhibition; assay type: cell-based; details: alone
Description: Example B3: Fungicidal Action Against Septoria tritici (Leaf Blotch)
as §1

[4] = test system: Alternaria solani; experiment: Fungicidal action against Alternaria solani (early blight tomato/potato), microtiter growth inhibition; assay type: cell-based; details: alone
Description: Example B4: Fungicidal Action Against Alternaria solani (Early Blight Tomato/Potato)
as §1, with “after 3” for “after 4”

[5] = test system: Pseudocercosporella herpotrichoides (syn. Tapesia yallundae); experiment: Fungicidal action against Pseudocercosporella herpotrichoides (eye spot of cereals), microtiter growth inhibition; assay type: cell-based; details: alone
Description: Example B5: Funicidal Action Against Pseudocercosporella herpotrichoides (Syn. Tapesia yallundae), Eye Spot of Cereals
as §1

[6] = test system: Pyrenophora teres; experiment: Fungicidal action against Pyrenophora teres (net blotch), microtiter growth inhibition; assay type: cell-based
Description: Example B6: Fungicidal Action Against Pyrenophora teres (Net Blotch)
as §1

[7] = test system: Gaeumannomyces graminis; experiment: Fungicidal action against Gaeumannomyces graminis (take-all of cereals), microtiter growth inhibition; assay type: cell-based; details: compound alone
Description: Example B7: Fungicidal Action Against Gaeumannomyces graminis (Take-all of Cereals)
as §1, with “Mycelial fragments” for “Conidia”, “24 C” for “24° C.”, “days.” for “days. The expected fungicidal action is calculated according to the Colby method.”

[8] = test system: Cercospora arachidicola (syn. Mycosphaerella arachidis); experiment: Fungicidal action against Cercospora arachidicola (brown leaf spot of groundnut), microtiter growth inhibition; assay type: cell-based; details: compound alone
Description: Example B8: Fungicidal Action Against Cercospora arachidicola (Syn. Mycosphaerella arachidis), Brown Leaf Spot of Groundnut (Peanut)
as §1, with “24 C” for “24° C.”, “7” for “4”, “days.” for “days. The expected fungicidal action is calculated according to the Colby method.”

[9] = test system: Monopraphella nivalis (syn. Microdochium nivale, Fusarium nivale); experiment: Fungicidal action against Monopraphella nivalis (snow mould, foot rot of cereals), microtiter growth inhibition; assay type: cell-based; details: compound alone
Description: Example B9: Fungicidal Action Against Monopraphella nivalis (Syn. Microdochium nivale, Fusarium nivale), Snow Mould, Foot Rot of Cereals
as §1, with “24 C” for “24° C.”, “days.” for “days. The expected fungicidal action is calculated according to the Colby method.”

[10] = test system: Colletotrichum lagenarium (syn. Glomerella lagenarium); experiment: Fungicidal action against Colletotrichum lagenarium (anthracnose of cucurbits), microtiter growth inhibition; assay type: cell-based; details: compound alone
Description: Example B10: Fungicidal Action Against Colletotrichum lagenarium (Syn. Glomerella lagenarium), Anthracnose of Cucurbits Conidia of the fungus from cryogenic storage are directly mixed into nutrient broth (PDB potato dextrose broth). After placing a (DMSO) solution of the test compounds into a microtiter plate (96-well format) the nutrient broth containing the fungal spores is added. The test plates are incubated at 24 C and the inhibition of growth is evaluated after 3 days.

SMILES: Cn1cc(C(=O)Nc2cccc3c2C2CCC3C2=C(F)F)c(C(F)F)n1 (stereo not shown) [Compound A-1.2, 3-difluoromethyl-1-methyl-1H-pyrazole-4-carboxylic acid (9-difluoromethylidene-benzonorbornene-5-yl)amide]
% Control of Phakopsora pachyrhizi ([1]; 31.25 g a.i./ha): 39%
% Control of Phakopsora pachyrhizi ([1]; 62.5 g a.i./ha): 54%
% Control of Phakopsora pachyrhizi ([1]; 125 g a.i./ha): 44%
% Control of Phakopsora pachyrhizi ([1]; 250 g a.i./ha): 94%
% activity ([2]; 0.0313 ppm): 0%
% activity ([2]; 0.1250 ppm): 20%
% activity ([2]; 0.2500 ppm): 20%
% activity ([2]; 0.5000 ppm): 20%
% activity ([2]; 1.0000 ppm): 50%
% activity ([2]; 2.0000 ppm): 70%
% activity ([3]; 0.0078 ppm): 0%
% activity ([3]; 0.0156 ppm): 0%
% activity ([3]; 0.1250 ppm): 0%
% activity ([3]; 0.2500 ppm): 20%
% activity ([3]; 0.5000 ppm): 50%
% activity ([3]; 1.0000 ppm): 70%
% activity ([4]; 0.0313 ppm): 0%
% activity ([4]; 0.1250 ppm): 20%
% activity ([4]; 0.2500 ppm): 50%
% activity ([4]; 0.5000 ppm): 50%
% activity ([5]; 0.0039 ppm): 0%
% activity ([5]; 0.0078 ppm): 0%
% activity ([5]; 0.0156 ppm): 0%
% activity ([5]; 0.0313 ppm): 0%
% activity ([5]; 0.0625 ppm): 0%
% activity ([5]; 0.5000 ppm): 70%
% activity ([6]; 0.0078 ppm, alone): 0%
% activity ([6]; 0.0156 ppm, alone): 0%
% activity ([6]; 0.0313 ppm, alone): 0%
% activity ([6]; 0.1250 ppm, alone): 20%
% activity ([6]; 0.2500 ppm, alone): 20%
% activity ([6]; compound alone, 0.0313 ppm): 0%
% activity ([6]; compound alone, 0.1250 ppm): 20%
% activity ([6]; compound alone, 0.2500 ppm): 20%
% activity ([6]; compound alone, 0.5000 ppm): 50%
% activity ([6]; compound alone, 1.0000 ppm): 50%
% activity ([6]; compound alone, 2.0000 ppm): 70%
% activity ([7]; 0.0156 ppm): 0%
% activity ([7]; 0.0313 ppm): 0%
% activity ([7]; 0.0625 ppm): 0%
% activity ([7]; 0.1250 ppm): 0%
% activity ([7]; 0.5000 ppm): 70% and 90%
% activity ([8]; 0.0156 ppm): 0%
% activity ([8]; 0.0313 ppm): 0%
% activity ([8]; 0.0625 ppm): 0%
% activity ([8]; 0.1250 ppm): 20%
% activity ([8]; 0.2500 ppm): 70% and 50%
% activity ([9]; 1.0000 ppm): 50%
% activity ([9]; 2.0000 ppm): 70%
% activity ([10]; 0.0313 ppm): 0%
% activity ([10]; 0.0625 ppm): 0%
% activity ([10]; 0.1250 ppm): 0%
% activity ([10]; 0.5000 ppm): 20%
% activity ([10]; 1.0000 ppm): 50%

melting point: 183 to 188 °C and 179 to 181 °C
SMILES: Cn1cc(C(=O)Nc2cccc3c2C2CCC3C2=C(Cl)Cl)c(C(F)(F)F)n1 (stereo not shown)

SMILES: CC(Cc1ccc(C(C)(C)C)cc1)CN1C[C@@H](C)O[C@@H](C)C1 (stereo partly shown) [Fenpropimorph]
inhibition at 0.25 ppm ([7]; Gaeumannomyces graminis, 0.2500 ppm): 0%
inhibition at 0.5 ppm ([7]; Gaeumannomyces graminis, 0.5000 ppm): 0%
inhibition at 1 ppm ([7]; Gaeumannomyces graminis, 1.0000 ppm): 0%
inhibition at 2 ppm ([7]; Gaeumannomyces graminis, 2.0000 ppm): 20%
inhibition at 0.0625 ppm ([8]; Mycosphaerella arachidis, 0.0625 ppm): 0%
inhibition at 0.125 ppm ([8]; Mycosphaerella arachidis, 0.1250 ppm): 0%
inhibition at 0.25 ppm ([8]; Mycosphaerella arachidis, 0.2500 ppm): 20%
inhibition at 0.5 ppm ([8]; Mycosphaerella arachidis, 0.5000 ppm): 50%
inhibition at 0.0625 ppm ([9]; Microdochium nivale, 0.0625 ppm): 0%
inhibition at 0.125 ppm ([9]; Microdochium nivale, 0.1250 ppm): 0%
inhibition at 0.25 ppm ([9]; Microdochium nivale, 0.2500 ppm): 0%
inhibition at 0.5 ppm ([9]; Microdochium nivale, 0.5000 ppm): 0%
inhibition at 1 ppm ([9]; Microdochium nivale, 1.0000 ppm): 0%
inhibition at 2 ppm ([9]; Microdochium nivale, 2.0000 ppm): 0%
inhibition at 0.25 ppm ([10]; Colletotrichum orbiculare, 0.2500 ppm): 0%
inhibition at 0.5 ppm ([10]; Colletotrichum orbiculare, 0.5000 ppm): 0%
inhibition at 1 ppm ([10]; Colletotrichum orbiculare, 1.0000 ppm): 20%
inhibition at 2 ppm ([10]; Colletotrichum orbiculare, 2.0000 ppm): 20%
